Source: patent US8080529B2, “Macrolides with anti-inflammatory activity” (Glaxo Group Limited, priority 2005, dated 2011)
Like-named read-outs stand apart in the source and are kept apart here.

Key:
TNF-α [1] = assay: Inhibition of TNF-α production by stimulated human peripheral blood leukocytes in vitro; type: cell-based; conditions: Homo sapiens, Leukocyte, read-out: Percentage of inhibition of TNF-α production
In short: (§1)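 Compound at 10 or 50 μM, given 2 h ahead of an overnight LPS, PMA or zymosan challenge, was tested on human PBL in RPMI with 10% FCS at 37 °C. Sandwich ELISA quantified supernatant cytokine.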

IL-1α = assay: Inhibition of IL-1 production by stimulated human peripheral blood leukocytes in vitro; type: cell-based; conditions: Homo sapiens, Leukocyte, read-out: Percentage of inhibition of IL-1α production
IL-6 = assay: Inhibition of IL-6 production by stimulated human peripheral blood leukocytes in vitro; type: cell-based; conditions: Homo sapiens, Leukocyte, read-out: Percentage of inhibition of IL-6 production
In short: as §1

IL-8 = assay: Inhibition of IL-8 production by stimulated human peripheral blood leukocytes in vitro; type: cell-based; conditions: Homo sapiens, Leukocyte, read-out: Percentage of inhibition of IL-8 production
In short: as §1

[2] = test system: human peripheral blood mononuclear cells (PBMC); assay: Effects on human T-cell proliferation in vitro (3H-thymidine incorporation); type: cell-based; conditions: Homo sapiens, PBMC, read-out: Percentage of inhibition of proliferation of stimulated PBMC
In short: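 Proliferation of human peripheral blood mononuclear cells (PBMC) was assessed in the presence of test compounds. During the final 18 h of culture each well received 1 μCi of ^3H-thymidine. Cells were then collected onto a 96-well filter with a multiple cell harvester, and ^3H-thymidine incorporation was counted on a TopCount NXT to give percentage inhibition of proliferation.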

Hep G2 = assay: Cytotoxicity assay (MTT), Hep G2 cell line; type: cell-based; conditions: 24 h
In short: (§2)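 Viability was read as MTT-formazan absorbance at 490 nm after 0.5-2 h with reagent. This followed 24 h compound exposure (50 μM, 12.5 μM) at 37° C in RPM medium. Result expressed as OD490 treated over untreated cells ×100.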

A549 = assay: Cytotoxicity assay (MTT), A549 cell line; type: cell-based; conditions: 24 h
In short: as §2

TNF-α [3] = assay: Lipopolysaccharide induced TNF-α production in Balb/cJ mice; type: in vivo; conditions: Mus musculus, ip, 1.5 h; 10 mg/kg intraperitoneally, 30 min before LPS; 90 min after LPS; read-out: % inhibition of TNF-α production (plasma)

Row | SMILES | inhibition at 10 µM (TNF-α [1]; LPS-stimulated PBL) [%] | inhibition at 10 µM (TNF-α [1]; PMA-stimulated PBL) [%] | inhibition at 10 µM (TNF-α [1]; zymosan-stimulated PBL) [%] | inhibition at 50 µM (TNF-α [1]; LPS-stimulated PBL) [%] | inhibition at 50 µM (TNF-α [1]; PMA-stimulated PBL) [%] | inhibition at 50 µM (TNF-α [1]; zymosan-stimulated PBL) [%] | inhibition at 10 µM (IL-1α; LPS-stimulated PBL) [%] | inhibition at 10 µM (IL-1α; PMA-stimulated PBL) [%] | inhibition at 10 µM (IL-1α; zymosan-stimulated PBL) [%] | inhibition at 50 µM (IL-1α; LPS-stimulated PBL) [%] | inhibition at 50 µM (IL-1α; PMA-stimulated PBL) [%] | inhibition at 50 µM (IL-1α; zymosan-stimulated PBL) [%] | inhibition at 10 µM (IL-6; LPS-stimulated PBL) [%] | inhibition at 10 µM (IL-6; PMA-stimulated PBL) [%] | inhibition at 10 µM (IL-6; zymosan-stimulated PBL) [%] | inhibition at 50 µM (IL-6; LPS-stimulated PBL) [%] | inhibition at 50 µM (IL-6; PMA-stimulated PBL) [%] | inhibition at 50 µM (IL-6; zymosan-stimulated PBL) [%] | inhibition at 10 µM (IL-8; LPS-stimulated PBL) [%] | inhibition at 10 µM (IL-8; PMA-stimulated PBL) [%] | other results
1 | CC[C@H]1OC(=O)[C@H](C)[C@@H](O[C@H]2C[C@@](C)(OC)[C@@H](OC(=O)CCN(C)CCO)[C@H](C)O2)[C@H](C)[C@@H](O[C@@H]2O[C@H](C)C[C@H](N(C)C)[C@H]2O)[C@](C)(OC)C[C@@H](C)C(=O)N[C@H](C)[C@@H](O)[C@]1(C)O [Example 15] | 61 | 82 | 93 | 99 | 96 | 100 | 80 | 80 | 96 | 98 | 96 | 99 | 39 | 50 | 76 | 93 | 95 | 96 | 38 | 0 | inhibition at 10 µM (IL-8; zymosan-stimulated PBL): 42%; inhibition at 50 µM (IL-8; LPS-stimulated PBL): 94%; inhibition at 50 µM (IL-8; PMA-stimulated PBL): 95%; inhibition at 50 µM (IL-8; zymosan-stimulated PBL): 91%; inhibition at 10 µM ([2]; PHA): 68%; inhibition at 50 µM ([2]; PHA): 99%; inhibition at 10 µM ([2]; PMA + iono.): 53%; inhibition at 50 µM ([2]; PMA + iono.): 98%; Percentage of inhibition of cell growth (Hep G2; 12.5 μM): 3%; Percentage of inhibition of cell growth (Hep G2; 50 μM): 0%; Percentage of inhibition of cell growth (A549; 12.5 μM): 0%; Percentage of inhibition of cell growth (A549; 50 μM): 5%; inhibition in vivo at 10 mg/kg (TNF-α [3]): 100%
2 | CC[C@H]1OC(=O)[C@H](C)C(O[C@H]2C[C@@](C)(OC)[C@@H](OC(=O)CCN(CC)CC)[C@H](C)O2)[C@H](C)[C@@H](O[C@@H]2O[C@H](C)C[C@H](N(C)C)[C@H]2O)[C@](C)(OC)C[C@@H](C)C(=O)[C@H](C)[C@H](O)[C@]1(C)O (stereo partly drawn) [Example 49, 4″-O-(3-Diethylamino-propionyl)-6-O-methylerithromycin A] | 69 | 37 | 70 | 91 | 86 | 93 | 84 | 35 | 76 | 86 | 84 | 25 | 70 | 76 | 76 | 99 | 86 | 97 | 44 | 0 | inhibition at 10 µM (IL-8; zymosan-stimulated PBL): 15%; inhibition at 50 µM (IL-8; LPS-stimulated PBL): 86%; inhibition at 50 µM (IL-8; PMA-stimulated PBL): 95%; inhibition at 50 µM (IL-8; zymosan-stimulated PBL): 54%; inhibition at 10 µM ([2]; PHA): 44%; inhibition at 50 µM ([2]; PHA): 99%; inhibition at 10 µM ([2]; PMA + iono.): 24%; inhibition at 50 µM ([2]; PMA + iono.): 100%; Percentage of inhibition of cell growth (Hep G2; 12.5 μM): 5%; Percentage of inhibition of cell growth (Hep G2; 50 μM): 26%; Percentage of inhibition of cell growth (A549; 12.5 μM): 0%; Percentage of inhibition of cell growth (A549; 50 μM): 6%; inhibition in vivo at 10 mg/kg (TNF-α [3]): 43%
3 | CC[C@H]1OC(=O)[C@H](C)[C@@H](O[C@H]2C[C@@](C)(OC)[C@@H](OC(=O)CCN3CCN(CCN(C)C)CC3)[C@H](C)O2)[C@H](C)[C@@H](O[C@@H]2O[C@H](C)C[C@H](N(C)C)[C@H]2O)[C@](C)(OC)C[C@@H](C)C(=O)N[C@H](C)[C@@H](O)[C@]1(C)O [Example 17] | 13 | 46 | 30 | 21 | 67 | 46 | 25 | 55 | 58 | 44 | 75 | 90 | 9 | 37 | 33 | 14 | 55 | 60 | 4 | 21 | inhibition at 10 µM (IL-8; zymosan-stimulated PBL): 20%; inhibition at 50 µM (IL-8; LPS-stimulated PBL): 6%; inhibition at 50 µM (IL-8; PMA-stimulated PBL): 13%; inhibition at 50 µM (IL-8; zymosan-stimulated PBL): 13%; inhibition at 10 µM ([2]; PHA): 0%; inhibition at 50 µM ([2]; PHA): 70%; inhibition at 10 µM ([2]; PMA + iono.): 3%; inhibition at 50 µM ([2]; PMA + iono.): 49%; Percentage of inhibition of cell growth (Hep G2; 12.5 μM): 5%; Percentage of inhibition of cell growth (Hep G2; 50 μM): 2%; Percentage of inhibition of cell growth (A549; 12.5 μM): 5%; Percentage of inhibition of cell growth (A549; 50 μM): 2%; inhibition in vivo at 10 mg/kg (TNF-α [3]): 84%
4 | CC[C@H]1OC(=O)[C@H](C)[C@@H](O[C@H]2C[C@@](C)(OC)[C@@H](OC(=O)CCN(C)CCN(CC)CC)[C@H](C)O2)[C@H](C)[C@@H](O[C@@H]2O[C@H](C)C[C@H](N(C)C)[C@H]2O)[C@](C)(OC)C[C@@H](C)C(=O)N[C@H](C)[C@@H](O)[C@]1(C)O [Example 21] | 0 | 8 | 5 | 10 | 75 | 39 | 14 | 31 | 58 | 54 | 69 | 86 | 1 | 17 | 22 | 22 | 63 | 50 | 0 | 6 | inhibition at 10 µM (IL-8; zymosan-stimulated PBL): 0%; inhibition at 50 µM (IL-8; LPS-stimulated PBL): 4%; inhibition at 50 µM (IL-8; PMA-stimulated PBL): 23%; inhibition at 50 µM (IL-8; zymosan-stimulated PBL): 13%; inhibition at 10 µM ([2]; PHA): 0%; inhibition at 50 µM ([2]; PHA): 80%; inhibition at 10 µM ([2]; PMA + iono.): 0%; inhibition at 50 µM ([2]; PMA + iono.): 74%; Percentage of inhibition of cell growth (Hep G2; 12.5 μM): 8%; Percentage of inhibition of cell growth (Hep G2; 50 μM): 4%; Percentage of inhibition of cell growth (A549; 12.5 μM): 5%; Percentage of inhibition of cell growth (A549; 50 μM): 4%; inhibition in vivo at 10 mg/kg (TNF-α [3]): 61%
